Laboratory results published in patent publication US12410160B2 (Gilead Sciences, Inc., priority 2021, dated 2025).
Read-outs that look alike come from different tables or passages of the source.

How the values were obtained:
human KHK-C = human KHK-C (Homo sapiens (Human), UniProt P50053); experiment: KHK Biochemical Assay (IC50), ADP-Glo, KHK-C; details: average of at least two separate assays
In short: (§1)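 His-tagged enzyme expressed in BL21 (DE3), Ni-NTA purified. Compounds, serially diluted 1:3 in DMSO, pre-incubated 30 min with enzyme in 50 mM Hepes pH 7.4, 140 mM KCl, 5 mM MgCl2, 0.01% Triton-X, then ATP and fructose added; 4 h at room temperature. ADP formation read by ADP-Glo luminescence.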

human KHK-A = human KHK-A (Homo sapiens (Human), UniProt P50053); experiment: KHK Biochemical Assay (IC50), ADP-Glo, KHK-A; details: average of at least two separate assays
Sequence of human KHK-A (P50053 other isoform, or with tags, fused parts or gaps): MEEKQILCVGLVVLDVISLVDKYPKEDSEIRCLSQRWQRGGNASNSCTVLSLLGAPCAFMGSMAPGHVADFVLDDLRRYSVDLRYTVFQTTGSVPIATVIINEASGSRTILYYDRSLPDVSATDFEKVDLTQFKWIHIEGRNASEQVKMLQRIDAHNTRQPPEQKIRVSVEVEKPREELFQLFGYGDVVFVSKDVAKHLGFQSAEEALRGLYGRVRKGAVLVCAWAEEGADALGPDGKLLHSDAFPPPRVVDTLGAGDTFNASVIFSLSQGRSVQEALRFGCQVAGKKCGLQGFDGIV
In short: as §1

HepG2 cells = experiment: F1P Cell-Based Assay (EC50), 13C6-fructose-1-phosphate in HepG2 cells (cell culture medium or 50% human plasma)
[1] = target: KHK-C expressed in NRK-52E cells (Homo sapiens (Human), UniProt P50053); experiment: KHK-C Cell-based Assay (EC50), NRK CTG, fructose-mediated ATP-depletion
Sequence of KHK-C expressed in NRK-52E cells (P50053 whole entry): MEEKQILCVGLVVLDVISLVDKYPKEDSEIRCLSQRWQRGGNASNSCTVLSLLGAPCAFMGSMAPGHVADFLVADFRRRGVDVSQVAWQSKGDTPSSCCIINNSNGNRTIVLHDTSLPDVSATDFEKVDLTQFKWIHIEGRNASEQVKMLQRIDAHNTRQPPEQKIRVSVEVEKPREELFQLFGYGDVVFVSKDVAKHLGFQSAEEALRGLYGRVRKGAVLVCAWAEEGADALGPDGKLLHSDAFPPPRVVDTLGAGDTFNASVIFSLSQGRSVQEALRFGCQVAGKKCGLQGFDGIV

[2] = Homo sapiens, HepG2, HepG2 cells, 50% human plasma, read-out: F1P 50% HP EC50
[3] = Homo sapiens, HepG2, read-out: F1P 10% FBS EC50, HepG2 cells, cell culture medium (10% FBS)
[4] = HepG2 cells, 50% human plasma, read-out: F1P 50% HP EC50
[5] = read-out: F1P 10% FBS EC50, HepG2 cells, cell culture medium (10% FBS)
[6] = read-out: NRK CTG EC50, NRK-52E cells, Cell-Titer Glo, 25 mM fructose
[7] = read-out: NRK CTG EC50, NRK-52E cells, Cell-Titer Glo, 25 mM fructose, 48 hours

Sequence of human KHK-C (P50053 whole entry): as above

Row | IC50 (human KHK-C) | IC50 (human KHK-A) | EC50 (HepG2 cells; [2]) | EC50 (HepG2 cells; [3]) | EC50 [1] | EC50 (HepG2 cells; [4]) | EC50 (HepG2 cells; [5]) | EC50 [1, 6] | IC50 (human KHK-C; ADP-Glo) | IC50 (human KHK-A; ADP-Glo) | EC50 [1, 7] | Compound
1 | 7.6 nM | 14.4 nM | 23.9 nM | 9 nM | 65.4 nM |  |  |  |  |  |  | COc1ccc(-c2nc(N3C[C@@H](O)[C@@H]3C)nc3c2CCC3(F)F)cc1[S@](C)(=N)=O (single isomer, unassigned) [Example 496]
2 | 3.8 nM | 4.4 nM | 8.9 nM | 7.3 nM | 18.2 nM |  |  |  |  |  |  | C[C@H]1[C@H](O)CN1c1nc(-c2ccc(OC(F)F)c([S@@](C)(=N)=O)c2)c2c(n1)C(F)(F)CC2 (single isomer, unassigned) [Example 533]
3 | 0.1 nM | 5.4 nM | 17.4 nM | 5.4 nM | 3.8 nM |  |  |  |  |  |  | C[C@H]1[C@H](O)CN1c1nc(-c2ccc3c(c2)CC[C@@]32COCC(=O)N2)c2c(n1)C(F)(F)CC2 (single isomer, unassigned) [Example 549]
4 | 1.2 nM | 30.5 nM |  |  |  | 117 nM | 59.7 nM | 29 nM |  |  |  | C[C@H]1[C@H](O)CN1c1nc(-c2ccc3c(c2)COC[C@@]32COC(=O)N2)c2c(n1)C(F)(F)CC2 (single isomer, unassigned) [Example 555]
5 | 26.6 nM | 42.1 nM | > 500 nM | 210 nM | 201 nM |  |  |  |  |  |  | C[C@H]1[C@H](O)CN1c1nc(-c2ccc3c(c2)COC[C@]32COC(=O)N2)c2c(n1)C(F)(F)CC2 (single isomer, unassigned) [Example 556]
6 | 0.2 nM | 7.8 nM |  |  |  | 16.3 nM | 5.6 nM | 3.2 nM |  |  |  | CC1OC[C@@]2(COc3cc(-c4nc(N5C[C@@H](O)[C@@H]5C)nc5c4CCC5(F)F)ccc32)NC1=O (single isomer, unassigned) [Example 559]
7 | 0.1 nM | 8.6 nM | 23.7 nM | 20.1 nM | 3.7 nM |  |  |  |  |  |  | CCN1C(=O)N[C@]2(COc3cc(-c4nc(N5C[C@@H](O)[C@@H]5C)nc5c4CCC5(F)F)ccc32)C1=O (single isomer, unassigned) [Example 697]
8 | 5.6 nM | 47.4 nM |  |  |  | 267 nM | 152 nM | 71.5 nM |  |  |  | CCN1C(=O)N[C@@]2(COc3cc(-c4nc(N5C[C@@H](O)[C@@H]5C)nc5c4CCC5(F)F)ccc32)C1=O (single isomer, unassigned) [Example 698]
9 |  |  |  |  |  | 67.8 nM | 20.3 nM |  | 6.2 nM | 14.3 nM | 26.5 nM | C[C@H]1[C@H](O)CN1c1nc(-c2ccc3c(c2)[S@](=N)(=O)CCO3)c2c(n1)C(F)(F)CC2 (single isomer, unassigned) [Example 820]
10 |  |  |  |  |  | 216 nM | 90.6 nM |  | 6.4 nM | 48.2 nM | 56.3 nM | C[C@H]1[C@H](O)CN1c1nc(-c2cnc3c(c2)OC[C@@H]3NS(C)(=O)=O)c2c(n1)C(F)(F)CC2 (single isomer, unassigned) [Example 823]
11 |  |  | 16.8 nM | 15.7 nM | 4.2 nM |  |  |  | 0.3 nM | 12.3 nM |  | C[C@H]1[C@H](O)CN1c1nc(-c2ccc3c(c2)OC[C@@]32NC(=O)N(C)C2=O)c2c(n1)C(F)(F)CC2 (single isomer, unassigned) [Example 826]
12 |  |  | 13.4 nM | 4.8 nM | 2 nM |  |  |  | 0.9 nM | 4.6 nM |  | C[C@H]1CCN1c1nc(-c2ccc(C3(N)COC3)cc2)c2c(n1)C(F)(F)CC2 [Example 160, (S)-3-(4-(7,7-difluoro-2-(2-methylazetidin-1-yl)-6,7-dihydro-5H-cyclopenta[d]pyrimidin-4-yl)phenyl)oxetan-3-amine]
13 |  |  | 9.3 nM | 3.9 nM | 2.1 nM |  |  |  | 0.9 nM | 1.2 nM |  | C[C@H]1CCN1c1nc2c(c(-c3ccc(C4(N)CCC4)cc3)n1)CCC2 [Example 312, (S)-1-(4-(2-(2-methylazetidin-1-yl)-6,7-dihydro-5H-cyclopenta[d]pyrimidin-4-yl)phenyl)cyclobutan-1-amine]
14 |  |  | 42.9 nM | 27.4 nM | 97.2 nM |  |  |  | 4.1 nM | 6.4 nM |  | C[C@H]1[C@H](O)CN1c1nc(-c2cc3c(c(S(N)(=O)=O)c2)OCC3)c2c(n1)C(F)(F)CC2 [Example 351, 5-(7,7-difluoro-2-((2S,3R)-3-hydroxy-2-methylazetidin-1-yl)-6,7-dihydro-5H-cyclopenta[d]pyrimidin-4-yl)-2,3-dihydrobenzofuran-7-sulfonamide]
15 | 1.8 nM | 5.3 nM | 23.8 nM | 7.6 nM | 4.3 nM |  |  |  |  |  |  | C[C@H]1[C@H](F)CN1c1nc(-c2ccc(C3(N)COC3)cc2)c2c(n1)C(F)(F)CC2 [Example 468, 3-(4-(7,7-difluoro-2-((2S,3R)-3-fluoro-2-methylazetidin-1-yl)-6,7-dihydro-5H-cyclopenta[d]pyrimidin-4-yl)phenyl)oxetan-3-amine]
16 | 1.9 nM | 6.3 nM | 51 nM | 13.4 nM | 5 nM |  |  |  |  |  |  | C[C@@H]1N(c2nc(-c3ccc(C4(N)COC4)cc3)c3c(n2)C(F)(F)CC3)CC1(F)F [Example 470, (S)-3-(4-(2-(3,3-difluoro-2-methylazetidin-1-yl)-7,7-difluoro-6,7-dihydro-5H-cyclopenta[d]pyrimidin-4-yl)phenyl)oxetan-3-amine]
17 | 0.1 nM | 10.6 nM | 44.4 nM | 28.7 nM | 4.1 nM |  |  |  |  |  |  | C[C@H]1[C@H](O)CN1c1nc(-c2ccc3c(c2)CC[C@]32NC(=O)N(C)C2=O)c2c(n1)C(F)(F)CC2 [Example 488, (58)-5′-[7,7-difluoro-2-[(2S,3R)-3-hydroxy-2-methyl-azetidin-1-yl]-5,6-dihydrocyclopenta[d]pyrimidin-4-yl]-3-methyl-spiro[imidazolidine-5,1′-indane]-2,4-dione]
18 | 2.3 nM | 10.1 nM | 34.7 nM | 9.9 nM | 11.5 nM |  |  |  |  |  |  | C[C@H]1C[C@H](C)N1c1nc(-c2ccc(C3(N)COC3)cc2)c2c(n1)C(F)(F)CC2 [Example 504, 3-(4-(2-((2S,4S)-2,4-dimethylazetidin-1-yl)-7,7-difluoro-6,7-dihydro-5H-cyclopenta[d]pyrimidin-4-yl)phenyl)oxetan-3-amine]
19 | 1.1 nM | 0.2 nM | 24.6 nM | 3.5 nM | 8 nM |  |  |  |  |  |  | COc1ccc(-c2nc(N3C[C@@H](F)[C@@H]3C)nc3c2CCC3(F)F)cc1[S@@](C)(=N)=O [Example 561, (S)-(5-(7,7-difluoro-2-((2S,3R)-3-fluoro-2-methylazetidin-1-yl)-6,7-dihydro-5H-cyclopenta[d]pyrimidin-4-yl)-2-methoxyphenyl)(imino)(methyl)-λ^6-sulfanone]
20 | 1.4 nM | 0.3 nM | 3.6 nM | 1.1 nM | 5.8 nM |  |  |  |  |  |  | COc1ccc(-c2nc(N3C[C@H](F)[C@@H]3C)nc3c2CCC3(F)F)cc1[S@@](C)(=N)=O [Example 562, (S)-(5-(7,7-difluoro-2-((2S,3S)-3-fluoro-2-methylazetidin-1-yl)-6,7-dihydro-5H-cyclopenta[d]pyrimidin-4-yl)-2-methoxyphenyl)(imino)(methyl)-λ^6-sulfanone]
21 | 1.7 nM | 0.2 nM | 6.7 nM | 0.6 nM | 5.1 nM |  |  |  |  |  |  | COc1ccc(-c2nc(N3CC(F)(F)[C@@H]3C)nc3c2CCC3(F)F)cc1[S@@](C)(=N)=O [Example 563, (S)-(5-(2-((S)-3,3-difluoro-2-methylazetidin-1-yl)-7,7-difluoro-6,7-dihydro-5H-cyclopenta[d]pyrimidin-4-yl)-2-methoxyphenyl)(imino)(methyl)-λ^6-sulfanone]
22 | 24.4 nM | 11.6 nM | 142 nM | 38.5 nM | 98.1 nM |  |  |  |  |  |  | C[C@H]1[C@H](O)CN1c1nc(-c2ccc(OC(F)(F)F)c(S(C)(=N)=O)c2)c2c(n1)C(F)(F)CC2 (stereo partly drawn) [Example 564, (5-(7,7-difluoro-2-((2S,3R)-3-hydroxy-2-methylazetidin-1-yl)-6,7-dihydro-5H-cyclopenta[d]pyrimidin-4-yl)-2-(trifluoromethoxy)phenyl)(imino)(methyl)-λ^6-sulfanone]
23 | 2.6 nM | 32.8 nM | 204 nM | 50.3 nM | 19.3 nM |  |  |  |  |  |  | C[C@H]1[C@H](O)CN1c1nc(-c2ccc3c(c2)OCC32NC(=O)OC2(C)C)c2c(n1)C(F)(F)CC2 (stereo partly drawn) [Example 565, 6-(7,7-difluoro-2-((2S,3R)-3-hydroxy-2-methylazetidin-1-yl)-6,7-dihydro-5H-cyclopenta[d]pyrimidin-4-yl)-5′,5′-dimethyl-2H-spiro[benzofuran-3,4′-oxazolidin]-2′-one]
24 |  |  | 41.8 nM | 38.6 nM | 696 nM |  |  |  | 6.3 nM |  |  | C[C@H]1[C@H](O)CN1c1nc(-c2ccc3c(c2)O[C@@H](CO)CNC3=O)c2c(n1)C(F)(F)CC2 [Example 808, (R)-8-(7,7-difluoro-2-((2S,3R)-3-hydroxy-2-methylazetidin-1-yl)-6,7-dihydro-5H-cyclopenta[d]pyrimidin-4-yl)-2-(hydroxymethyl)-3,4-dihydrobenzo[f][1,4]oxazepin-5(2H)-one]
